Experimental data reported in PubChem BioAssay AID651733 (The Scripps Research Institute Molecular Screening Center, 2012).
pIC50: −log10 of the molar value. The source made the active and inactive calls. How the calls were made is not given here.

Biological target: Perilipin-5 (Homo sapiens) + 1-acylglycerol-3-phosphate O-acyltransferase ABHD5 (Homo sapiens) (UniProt Q00G26+Q8WTS1)
Experiment: blockers of ABHD5 binding to perilipin-5 – cell lysate, luminescence, proteins expressed in HEK293T, dose response (AID 651733);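 further: split Gaussia princeps luciferase complementation between ABHD5 and MLDP fusion proteins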
Details: ABHD5-PLIN5 interaction

Perilipin-5 (Homo sapiens) + 1-acylglycerol-3-phosphate O-acyltransferase ABHD5 (Homo sapiens), sequence (Q00G26 whole entry, looked up, the tested form may be a part): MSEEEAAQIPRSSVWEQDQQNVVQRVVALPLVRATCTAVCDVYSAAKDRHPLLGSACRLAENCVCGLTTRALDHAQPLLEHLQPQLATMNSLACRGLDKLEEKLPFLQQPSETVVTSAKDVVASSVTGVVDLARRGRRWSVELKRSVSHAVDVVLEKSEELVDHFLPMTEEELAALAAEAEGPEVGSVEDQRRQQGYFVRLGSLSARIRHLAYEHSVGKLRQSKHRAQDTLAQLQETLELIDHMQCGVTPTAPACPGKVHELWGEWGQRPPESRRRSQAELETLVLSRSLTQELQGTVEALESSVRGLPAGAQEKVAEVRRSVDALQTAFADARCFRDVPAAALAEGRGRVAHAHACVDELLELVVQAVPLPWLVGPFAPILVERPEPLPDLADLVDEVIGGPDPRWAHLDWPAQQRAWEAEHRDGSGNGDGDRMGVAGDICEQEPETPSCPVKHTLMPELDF
Perilipin-5 (Homo sapiens) + 1-acylglycerol-3-phosphate O-acyltransferase ABHD5 (Homo sapiens), sequence (Q8WTS1 whole entry, looked up, the tested form may be a part): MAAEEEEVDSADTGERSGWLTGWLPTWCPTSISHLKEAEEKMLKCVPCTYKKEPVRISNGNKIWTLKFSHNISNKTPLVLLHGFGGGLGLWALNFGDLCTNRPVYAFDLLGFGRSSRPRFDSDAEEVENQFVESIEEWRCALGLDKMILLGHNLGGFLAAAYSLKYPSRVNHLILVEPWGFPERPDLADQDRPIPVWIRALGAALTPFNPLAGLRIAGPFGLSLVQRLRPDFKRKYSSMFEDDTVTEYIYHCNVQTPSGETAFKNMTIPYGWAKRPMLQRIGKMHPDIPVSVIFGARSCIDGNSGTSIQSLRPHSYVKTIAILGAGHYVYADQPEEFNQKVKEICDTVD

SMILES	IC50	pIC50
CN(C)CCCNC(=O)c1ccc(-c2nc(-c3ccc(Cl)cc3)cs2)cc1	inactive	
CCN(CC)CCN(CC(=O)Nc1c(C)cc(C)cc1C)C(=O)c1ccccc1		5.41
O=C(NCc1ccccc1)C(c1cccc2ccccc12)n1c(=O)c(-c2ccco2)nc2ccccc21 (stereo not drawn)		5.38
O=C(NC1CCCCC1)C(c1ccc(C(F)(F)F)cc1)n1c(=O)c(-c2ccco2)nc2ccccc21 (stereo not drawn)		5.42
CCSc1ccc2c(c1)N(CCCN1CCN(C)CC1)c1ccccc1S2		5.23
O=C1CC(c2ccc(Cl)cc2)Oc2ccc(Cl)cc21 (stereo not drawn)		5.50
Cc1ccc(/C=C/C(=O)c2cc(Br)ccc2OC(=O)c2ccco2)cc1		6.17
COc1ccc(NC(=S)N(CCCN2CCCC2)Cc2cccn2Cc2ccc(Cl)cc2)cc1Cl	inactive	
CCOC(=O)C1C(OC(=O)c2ccccc2)CC2CCC1N2C (stereo not drawn)		5.25
CC(C)(C)NC(=O)C(c1ccccc1)n1c(=O)c(-c2ccco2)nc2ccccc21 (stereo not drawn)		5.44
NC(=O)CCN1CCN(CCOC2Cc3cc(Cl)ccc3Sc3ccccc32)CC1 (stereo not drawn)	inactive	
CCC(c1nc2ccccc2[nH]1)n1c(=O)c(-c2ccco2)nc2ccccc21 (stereo not drawn)		5.26
C#CCOCCOCCOCCNc1nc(N2CCN(C(=O)CCCCCCCCCCNC(=O)[C@@H](CCSC)n3cc(CCO)nn3)CC2)nc(N2CCN(C(=O)CCCCCCCCCCNC(=O)[C@@H]([C@H](C)O)n3cc(C)nn3)CC2)n1	inactive	
O=C(NC1CCCCC1)C(c1cccc2ccccc12)n1c(=O)c(-c2ccco2)nc2ccccc21 (stereo not drawn)		5.63
N#Cc1ncc(Cc2ccccc2)nc1C#N	inactive	
CC1(C)C2CCC(CN=C(N)CSS(=O)(=O)O)C1C2 (stereo not drawn)		5.33
CC(C)(C)NC(=O)C(c1ccc(C(F)(F)F)cc1)n1c(=O)c(-c2ccco2)nc2ccccc21 (stereo not drawn)		5.18
O=C1NC(=S)NC(=O)C12C(c1ccccc1)NC(=S)NC2c1ccccc1 (stereo not drawn)		5.41
O=C(NC1CCCCC1)C(c1ccccc1)n1c(=O)c(-c2ccco2)nc2ccccc21 (stereo not drawn)		5.71
COc1ccc(NC(=O)C(c2ccc(C#N)cc2)n2c(=O)c(-c3ccco3)nc3ccccc32)cc1 (stereo not drawn)	inactive	
CCN(CC)CCOCCOC(=O)C1(c2ccccc2)CCCC1		5.66
CC1=CC2C(C(O)CC3(C)C2CC(C)C32OCOC23COCO3)C2(C)C/C(=C\O)C(=O)C=C12 (stereo not drawn)		5.44
c1ccc(CCC2=NCCn3cccc32)cc1		5.09
CCCCn1c(SCC(=O)NCc2ccco2)nnc1-c1ccoc1C		5.19

SMILES	IC50	pIC50
CC1Sc2ccc(S(=O)(=O)N3CCC(C(=O)NCc4ccc(Cl)cc4)CC3)cc2NC1=O (stereo not drawn)	inactive	
Cc1ccc(C)c(/C=C/C(=O)c2ccccc(=O)c2O)c1		5.24
CC(=O)Oc1c(Cl)cc(N(C(C)=O)S(=O)(=O)c2ccccc2)c2ccccc12		5.15
CC1CCN(S(=O)(=O)c2ccc(NC(=O)Cc3cccs3)cc2)CC1		5.09
CCOC(=O)N1CCN(C(=O)C[C@@H]2C[C@@]3(C(=O)OCC)CCC=C3N(Cc3ccc(Cl)cc3Cl)C2=O)CC1		5.13
O=C1/C(=C/c2cccnc2)CC/C1=C\c1cccnc1		5.37
N#Cc1ccc(C(C(=O)NC2CCCCC2)n2c(=O)c(-c3ccco3)nc3ccccc32)cc1 (stereo not drawn)		5.39
O=C1NC(=O)N(Cc2ccccc2)C(=O)/C1=C\C=C\c1ccco1		5.60
COC(=O)c1cc(=O)n(Cc2ccco2)c(=Nc2ccc(F)cc2)s1		5.45
COc1ccccc1C=CC(=O)C=Cc1ccccc1OC		5.18
C#CCN(C[C@@H]1[C@@H](OC(=O)NCC2CCCCC2)[C@@H](OC(=O)NCC2CCCCC2)Cn2c(=O)ccc(=O)n21)S(=O)(=O)c1ccc(C)cc1		5.35
Cc1ccc(C(=O)c2coc3c2C(=O)C(=O)c2ccccc2-3)cc1		5.21
CC1=CC(C)(C)Nc2ccc(OC(=O)CN3C(=O)C4CCCCC4C3=O)cc21 (stereo not drawn)		5.40
C=C[C@]1(C)C[C@@H](OC(=O)CSCCN(CC)CC)[C@]2(C)C(C)CC[C@]3(CCC(=O)[C@H]32)[C@@H](C)[C@@H]1O (stereo partly drawn)		5.34
CSc1nnc(NC(=O)c2nc(S(=O)(=O)Cc3ccccc3)ncc2Cl)s1		5.38
Cc1nc2c(o1)CCc1ccccc1C2N1CCN(C)CC1 (stereo not drawn)		5.35
Oc1c(C(c2ccccc2)N2CCCCC2)ccc2ccccc12 (stereo not drawn)		5.76
O=C(NC1CCCCC1)C(c1ccnc2ccccc12)n1c(=O)c(-c2ccco2)nc2ccccc21 (stereo not drawn)		5.35
Cc1cccc(C)c1NC(=O)C(c1ccnc2ccccc12)n1c(=O)c(-c2ccco2)nc2ccccc21 (stereo not drawn)		5.21
Cc1ccc(SC2=C(Sc3ccc(C)cc3)C(=O)c3ccccc3C2=O)cc1	inactive	
C#CCN(C[C@@H]1[C@@H](OC(=O)NCCCCCC)[C@@H](OC(=O)NCCCCCC)Cn2c(=O)ccc(=O)n21)S(=O)(=O)c1ccc(C)cc1		5.19
Cc1ccc(/C(O)=C2/C(=O)C(=O)OC2c2ccc(Cl)cc2)cc1 (stereo not drawn)	inactive	
CC(C)(C)NC(=O)C(c1ccccc1F)n1c(=O)c(-c2ccco2)nc2ccccc21 (stereo not drawn)		5.38
COc1ccc(/C=C\C(=O)CC(O)(c2ccccc2)C(F)(F)F)cc1 (stereo not drawn)		5.71
